Measured values reported in PMC6695598, “The Development of Tetrazole Derivatives as Protein Arginine Methyltransferase I (PRMT I) Inhibitors” (International Journal of Molecular Sciences, 2019).
“Also recorded” adds a separate entry of the source.

What was measured:
PRMT5 = PRMT5 (Homo sapiens, UniProt O14744); assay: radioactive methylation assay, PRMT5 selectivity; type: biochemical
Description: (§1) The enzyme inhibitory activities were measured by the radioisotope assay in ShangHai Chempartner Co. Ltd. according to the standard protocol. The similar procedure was recently performed in the publication The radioactive methylation assay was performed in 1× assay buffer (modified Tris buffer) system containing enzyme (PRMT1/5), peptide and [^3H]-SAM solution and compounds on the assay plate. […] Afterwards, the reaction was stopped with addition of 5 μL cold SAM solution to per well. Then, 25 μL of volume per well was transferred to Flashplate from assay plate and incubated for 1 h minimum at room temperature. Finally, the Flashplate was washed with dH2O and 0.1% Tween-20 three times and then reading plate in Mi crobeta using program ^3H-Flashplate. The data was analyzed in GraphPad Prism 5 to obtain IC50 values.

MDA-MB-231 cells = assay: Western blotting of PRMT1 and Wnt pathway markers; type: cell-based
Description: MDA-MB-231 cells were maintained on 6-well plates at the appropriate density. […] Total cell lysates were separated by SDS-PAGE and transferred onto nitrocellulose membranes. The blots were blocked with 5% nonfat milk for 30 min and the target proteins were probed with appropriate specific antibody overnight at 4 °C, respectively. The blots were washed with TBST for three times and then incubated with anti-rabbit secondary antibody (HRP conjugated) for 1 h. After another three washes, bands were detected in a ChemiScope3400 imaging system using ECL substrate (Millipore, Burlington, MS, USA). Primary antibodies used were as follows: anti-PRMT1 (Cell Signaling Technology no.2449, Danvers, MA, USA), anti-ADMA (Cell Signaling Technology no.13522), anti-SDMA (Cell Signaling Technology no.13222), anti-GAPDH (Cell Signaling Technology no. 5174), anti-H4R3me2a Abcam, ab9231), Wnt3a (Cell Signaling Technology no. 2721s), anti-DDAH (Abcam, ab9231, Cambridge, UK), Wnt5a/b (Cell Signaling Technology no. 2530s), β-catenin (Cell Signaling Technology no. 8480s), MMP9 (Cell Signaling Technology no.1366s). The results were obtained from multiple membranes. No significant differences were observed among loading controls. Therefore, we presented the representative loading control blot image in the figure.

PRMT1 [1] = biological target: T1, PRMT1 (Homo sapiens, UniProt Q99873); assay: radioactive PRMT1 methylation inhibition assay ([3H]-SAM, biotinylated histone H4 peptide); type: biochemical
Description: A series of 1,5-substituded tetrazole derivatives were synthesized to investigate the structure-activity relationship (SAR) of PRMT1 inhibitors (Table 1). […] The chemical modification of these compounds is mainly focused on the substituted benzene ring. The initial screening of these compounds was carried out using the radioactive PRMT1 methylation inhibition assay, which measured the amount of methyl groups that transferred from [^3H]-SAM to a biotinylated histone H4 peptide (ac- […](Biotin)). […] In the second step, the Group II compounds were designed and synthesized by extending the ethylenediamine side chain to propylenediamine.
as §1

PRMT1 [2] = biological target: T1, PRMT1; assay: Mechanism of Action (MOA) study, competition with SAM and peptide on PRMT1; type: biochemical; conditions: IC50 at varied SAM (0.5-60× Km) or peptide (0.5-100× Km) concentrations
From the text: Both PRMT1 and PRMT6 are Type I PRMTs, and their structures share the high degree similarity. […] Based on the crystal structure, it can be predicated that MS023 should be a competitive inhibitor against the peptide. […] There are potential explanations for the current contradictory results. First, the main binding effects of the substrate were from the outside regions of arginine-binding site.
The method is consistent with the procedure described above.

[3] = WST-8/CCK8 cell viability assay; type: cell-based; conditions: human, MDA-MB-231 breast cancer cells, read-out: IC50 against MDA-MB-231 (cytotoxicity)
Description: The MDA-MB-231 cell line used in this study was obtained from the American Type Culture Collection (ATCC, Rockville, MD, USA), and was grown in dulbecco’s modified eagle medium (DMEM, Gibco, Thermo Fisher Scientific, Waltham, MA, USA) supplemented with 10% fetal bovine serum (FBS) (Gibco). The cells were incubated at 37 °C and 5% CO2.
The cytotoxicity was determined by the CCK8 assay. Briefly, MDA-MB-231 cells (5 × 10^3 cells/well) were seeded in 96-well plates in DMEM containing 10% FBS and grew for 24 h. The exponentially growing cells were incubated with various concentrations of compounds for 48h/72h in serum free DMEM at 37 °C (5% CO2, 95% humidity). CCK8 reagent (10 μL) was added to each well and incubated for further 2 h, and then the absorbance was analyzed in a multiwell-plate reader (BioTek ELx800) at 450 nm.

PRMT6 = tested on: PRMT6; parameters: method as in PMID 26598975; conditions: cited from earlier work
[4] = MDA-MB-231, 48 h, top concentration 200 μM

T1 sequence (Q99873 whole entry): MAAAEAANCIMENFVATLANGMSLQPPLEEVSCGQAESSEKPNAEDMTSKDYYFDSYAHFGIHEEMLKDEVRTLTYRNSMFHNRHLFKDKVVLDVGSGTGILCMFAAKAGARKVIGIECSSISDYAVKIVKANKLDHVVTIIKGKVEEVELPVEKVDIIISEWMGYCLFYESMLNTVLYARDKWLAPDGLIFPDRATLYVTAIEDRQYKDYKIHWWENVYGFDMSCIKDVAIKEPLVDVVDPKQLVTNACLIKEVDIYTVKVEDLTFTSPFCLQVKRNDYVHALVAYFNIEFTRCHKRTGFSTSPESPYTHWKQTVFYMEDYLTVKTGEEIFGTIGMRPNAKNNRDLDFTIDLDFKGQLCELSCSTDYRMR
Chain of PRMT5 (O14744 whole entry, species assumed): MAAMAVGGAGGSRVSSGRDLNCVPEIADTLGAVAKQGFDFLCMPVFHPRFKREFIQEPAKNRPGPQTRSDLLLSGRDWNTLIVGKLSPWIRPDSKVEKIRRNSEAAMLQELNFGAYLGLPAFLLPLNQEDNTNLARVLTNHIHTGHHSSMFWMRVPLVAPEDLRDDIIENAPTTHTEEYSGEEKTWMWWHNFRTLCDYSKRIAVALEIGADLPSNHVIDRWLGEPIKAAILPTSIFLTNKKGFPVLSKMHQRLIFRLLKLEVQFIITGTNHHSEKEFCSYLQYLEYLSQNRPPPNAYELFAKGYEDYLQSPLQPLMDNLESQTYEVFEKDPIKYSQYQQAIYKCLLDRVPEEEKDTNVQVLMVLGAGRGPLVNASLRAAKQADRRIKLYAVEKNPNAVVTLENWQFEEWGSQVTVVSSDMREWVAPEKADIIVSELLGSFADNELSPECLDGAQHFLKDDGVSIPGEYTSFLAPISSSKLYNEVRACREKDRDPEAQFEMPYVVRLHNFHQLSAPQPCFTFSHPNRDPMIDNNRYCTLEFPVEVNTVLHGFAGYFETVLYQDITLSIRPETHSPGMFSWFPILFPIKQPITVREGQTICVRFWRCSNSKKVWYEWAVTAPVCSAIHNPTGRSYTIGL
Chain of PRMT5 (Q9BQA1 whole entry partner, species assumed): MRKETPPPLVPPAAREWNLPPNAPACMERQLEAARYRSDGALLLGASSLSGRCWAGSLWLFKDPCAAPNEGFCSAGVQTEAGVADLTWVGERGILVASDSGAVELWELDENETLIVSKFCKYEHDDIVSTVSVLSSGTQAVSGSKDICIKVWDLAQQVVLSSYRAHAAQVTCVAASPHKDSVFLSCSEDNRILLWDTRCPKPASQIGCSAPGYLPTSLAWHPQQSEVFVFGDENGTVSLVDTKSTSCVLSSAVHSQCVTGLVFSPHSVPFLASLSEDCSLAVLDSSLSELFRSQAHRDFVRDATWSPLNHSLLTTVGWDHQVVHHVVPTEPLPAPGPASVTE

Compound | IC50 (PRMT5) [µM] | global level of ADMA (MDA-MB-231 cells; [4]) | global level of H4R3me2as (MDA-MB-231 cells; [4]) | global level of SDMA (MDA-MB-231 cells; [4]) | level of DDAH (MDA-MB-231 cells; [4]) | level of Wnt3a (MDA-MB-231 cells; [4]) | level of Wnt5a (MDA-MB-231 cells; [4]) | level of β-catenin (MDA-MB-231 cells; [4]) | cell damage during the western blotting experiment (MDA-MB-231 cells; MDA-MB-231, top concentration 200 μM) | IC50 (PRMT1 [1]) [µM] | inhibition at 10 µM (PRMT1 [1]; 10 μM compound, initial screening) [%] | mode of inhibition with respect to SAM and peptide substrate (PRMT1 [2]) | IC50 at 48 h ([3]; 48 h) [µM] | IC50 at 72 h ([3]; 72 h) [µM] | mode of inhibition with respect to SAM and peptide substrate (PRMT6)
CNCCN(C)Cc1nnnn1-c1ccc(OC(C)C)cc1.Cl [9a, N,N’-Dimethyl-N’-(1-(4-isopropoxyphenyl)-1H-tetrazol-5-yl-methyl)ethylenediamine hydrochloride] | > 100 | significantly decreased in a concentration-dependent manner; also recorded: significantly decreased in concentration-dependent manners | decreased the global level of H4R3me2as in a concentration-dependent manner; also recorded: significantly decreased in concentration-dependent manners | not significantly affected; also recorded: not significantly changed | significantly decreased in a concentration-dependent manner; also recorded: significantly decreased in concentration-dependent manners | significantly decreased in concentration-dependent manners | did not change significantly; also recorded: not changed | significantly decreased in concentration-dependent manners | no obvious cell damage was observed | 3.5 | > 47 | noncompetitive inhibitor for either the cofactor SAM or peptide substrate; also recorded: non-competitive pattern with respect to either SAM or substrate arginine; also recorded: did not compete with either SAM or peptides | > 500 | 541 ± 6.5 | –
CC(C)Oc1ccc(-c2c[nH]cc2CN(C)CCN)cc1 [MS023] | – | – | – | – | – | – | – | – | – | – | – | – | – | – | noncompetitive with either SAM or peptide substrate
